These results are taken from ChEMBL document CHEMBL1128784, “Symmetry-based HIV Protease inhibitors: rational design of 2-methylbenzamides as novel P2/P2 ligands” (Bioorg Med Chem Lett, 1995).

This assay has as its target Human immunodeficiency virus type 1 protease (Human immunodeficiency virus 1, UniProt Q72874). In words: Inhibitory activity against HIV protease.

With `Cc1ccc(O)cc1C(=O)N[C@@H](Cc1ccccc1)[C@H](O)[C@H](O)[C@H](Cc1ccccc1)NC(=O)c1cc(O)ccc1C`, the inhibition constant Ki worked out at 74 nM. That is a double-digit nanomolar value.
Then `Cc1c(N)cccc1C(=O)N[C@@H](Cc1ccccc1)[C@H](O)[C@H](O)[C@H](Cc1ccccc1)NC(=O)c1cccc(N)c1C`, with 2.5 nM.

A word on the Ki: it is a dissociation constant, usually derived from enzyme kinetics or from competition with a known ligand. Read a low Ki as a stronger hold on the target.
